In ChEMBL document CHEMBL6114957, “Exploring anticancer properties of new triazole-linked benzenesulfonamide derivatives against colorectal carcinoma: Synthesis, cytotoxicity, and in silico insights” (Bioorg Med Chem, 2025):

Tests used:
[1] = Cytotoxicity against human CCD-986Sk cells assessed as cell viability incubated for 48 hrs by MTT assay; assay type: toxicity, cell-based
COLO 205 = assay: Cytotoxicity against human COLO 205 cells assessed as cell viability incubated for 48 hrs by MTT assay; assay type: functional, cell-based; conditions: COLO 205, 48 h
DLD-1 [2] = assay: Cytotoxicity against human DLD-1 cells assessed as cell viability incubated for 48 hrs by MTT assay; assay type: functional, cell-based; conditions: DLD-1, 48 h
HT-29 = assay: Cytotoxicity against human HT-29 cells assessed as cell viability incubated for 48 hrs by MTT assay; assay type: functional, cell-based; conditions: HT-29, 48 h
DLD-1 [3] = assay: Induction of apoptosis in human DLD-1 cells assessed as early apoptotic cells at 10 uM incubated for 48 hrs by Annexin V staining based flow cytometry (reference value: 6.73 %); assay type: functional
DLD-1 [4] = assay: Induction of apoptosis in human DLD-1 cells assessed as viable cells at 10 uM incubated for 48 hrs by Annexin V staining based flow cytometry (reference value: 81.96 %); assay type: functional; conditions: read-out: Activity
DLD-1 [5] = assay: Induction of apoptosis in human DLD-1 cells assessed as late apoptotic cells at 10 uM incubated for 48 hrs by Annexin V staining based flow cytometry (reference value: 6.19 %); assay type: functional
DLD-1 [6] = assay: Induction of apoptosis in human DLD-1 cells assessed as necrotic cells at 10 uM incubated for 48 hrs by Annexin V staining based flow cytometry (reference value: 5.12 %); assay type: functional
DLD-1 [7] = assay: Induction of apoptosis in human DLD-1 cells assessed as late apoptotic cells at 5 uM incubated for 48 hrs by Annexin V staining based flow cytometry (reference value: 6.19 %); assay type: functional
DLD-1 [8] = assay: Induction of apoptosis in human DLD-1 cells assessed as early apoptotic cells at 5 uM incubated for 48 hrs by Annexin V staining based flow cytometry (reference value: 6.73 %); assay type: functional
DLD-1 [9] = assay: Induction of apoptosis in human DLD-1 cells assessed as viable cells at 5 uM incubated for 48 hrs by Annexin V staining based flow cytometry (reference value: 81.96 %); assay type: functional; conditions: read-out: Activity
DLD-1 [10] = assay: Induction of apoptosis in human DLD-1 cells assessed as necrotic cells at 5 uM incubated for 48 hrs by Annexin V staining based flow cytometry (reference value: 5.12 %); assay type: functional

SMILES | IC50 at 48 h [1] [µM] | IC50 (COLO 205) [µM] | IC50 (DLD-1 [2]) [µM] | IC50 (HT-29) [µM] | Activity (DLD-1 [3]) [%] | viability at 10 µM (DLD-1 [4]) [%] | Activity (DLD-1 [5]) [%] | Activity (DLD-1 [6]) [%] | Activity (DLD-1 [7]) [%] | Activity (DLD-1 [8]) [%] | viability at 5 µM (DLD-1 [9]) [%] | Activity (DLD-1 [10]) [%]
NS(=O)(=O)c1ccc(-n2cc(COc3ccc(C(=O)c4ccccc4)cc3)nn2)cc1 | 15.2 | > 200 | 19 | 20.6 | – | – | – | – | – | – | – | –
Cc1ccc(OCc2cn(-c3ccc(S(N)(=O)=O)cc3)nn2)c([N+](=O)[O-])c1 | 25.9 | 165 | 13 | 62.8 | – | – | – | – | – | – | – | –
CCN(CC)c1ccc(C=O)c(OCc2cn(-c3ccc(S(N)(=O)=O)cc3)nn2)c1 | 185 | 148 | 53.4 | 41.9 | – | – | – | – | – | – | – | –
NS(=O)(=O)c1ccc(-n2cc(COc3ccc([N+](=O)[O-])cc3C=O)nn2)cc1 | > 200 | 132 | 11.8 | 9.35 | 33.56 | 55 | 8.59 | 2.85 | – | – | – | –
NS(=O)(=O)c1ccc(-n2cc(COc3ccccc3C=O)nn2)cc1 | 96.3 | 147 | 52.1 | 65 | – | – | – | – | – | – | – | –
NS(=O)(=O)c1ccc(-n2cc(COc3ccc(Br)cc3C=O)nn2)cc1 | > 200 | > 200 | 51.1 | > 200 | – | – | – | – | – | – | – | –
NS(=O)(=O)c1ccc(-n2cc(COc3ccc(Cl)cc3Cl)nn2)cc1 | 78.2 | 172 | 24.9 | 63.6 | – | – | – | – | – | – | – | –
Cc1ccc(C(C)C)cc1OCc1cn(-c2ccc(S(N)(=O)=O)cc2)nn1 | 12.8 | > 200 | 16.6 | 35.9 | – | – | – | – | – | – | – | –
NS(=O)(=O)c1ccc(-n2cc(COc3ccc([N+](=O)[O-])cc3)nn2)cc1 | 69.8 | 124 | 76.8 | 78 | – | – | – | – | – | – | – | –
C=CCc1ccc(OCc2cn(-c3ccc(S(N)(=O)=O)cc3)nn2)c(OC)c1 | 134 | > 200 | 49.8 | 75.3 | – | – | – | – | – | – | – | –
CC(=O)c1ccccc1OCc1cn(-c2ccc(S(N)(=O)=O)cc2)nn1 | 139 | 160 | 51 | 80 | – | – | – | – | – | – | – | –
CC(=O)c1cccc(OCc2cn(-c3ccc(S(N)(=O)=O)cc3)nn2)c1 | > 200 | 81.3 | 79.2 | 128 | – | – | – | – | – | – | – | –
NS(=O)(=O)c1ccc(-n2cc(COc3ccc(C=O)cc3)nn2)cc1 | > 200 | 75.1 | 164 | > 200 | – | – | – | – | – | – | – | –
NS(=O)(=O)c1ccc(-n2cc(COc3cccc(C=O)c3)nn2)cc1 | > 200 | 40.9 | 122 | > 200 | – | – | – | – | – | – | – | –
NS(=O)(=O)c1ccc(-n2cc(COc3ccc4ccccc4c3C=O)nn2)cc1 | > 200 | > 200 | 153 | > 200 | – | – | – | – | – | – | – | –
CC(=O)c1ccc(OCc2cn(-c3ccc(S(N)(=O)=O)cc3)nn2)cc1 | > 200 | > 200 | 123 | > 200 | – | – | – | – | – | – | – | –
CC(=O)c1cc(Cl)ccc1OCc1cn(-c2ccc(S(N)(=O)=O)cc2)nn1 | 51.3 | > 200 | 15.9 | 187 | – | – | – | – | – | – | – | –
COc1cccc(C=O)c1OCc1cn(-c2ccc(S(N)(=O)=O)cc2)nn1 | > 200 | > 200 | 180 | > 200 | – | – | – | – | – | – | – | –
Cc1ccc(C(C)C)c(OCc2cn(-c3ccc(S(N)(=O)=O)cc3)nn2)c1 | 13.1 | > 200 | 35 | 33.2 | – | – | – | – | – | – | – | –
O=c1[nH]cc(F)c(=O)[nH]1 [FLUOROURACIL] | 7.98 | 90.1 | 5.75 | 4.51 | – | – | – | – | 9.91 | 25.5 | 60.9 | 3.73
